Measurements taken from ChEMBL document CHEMBL1142800, “Estrogen receptor ligands. Part 13: Dihydrobenzoxathiin SERAMs with an optimized antagonist side chain” (Bioorg Med Chem Lett, 2005).

Target: Estrogen receptor beta (Homo sapiens, UniProt Q92731)
Assay: Inhibition of human estrogen receptor 2 using tritiated estradiol incubated for 3 hr

Chain of Estrogen receptor beta (Q92731 whole entry): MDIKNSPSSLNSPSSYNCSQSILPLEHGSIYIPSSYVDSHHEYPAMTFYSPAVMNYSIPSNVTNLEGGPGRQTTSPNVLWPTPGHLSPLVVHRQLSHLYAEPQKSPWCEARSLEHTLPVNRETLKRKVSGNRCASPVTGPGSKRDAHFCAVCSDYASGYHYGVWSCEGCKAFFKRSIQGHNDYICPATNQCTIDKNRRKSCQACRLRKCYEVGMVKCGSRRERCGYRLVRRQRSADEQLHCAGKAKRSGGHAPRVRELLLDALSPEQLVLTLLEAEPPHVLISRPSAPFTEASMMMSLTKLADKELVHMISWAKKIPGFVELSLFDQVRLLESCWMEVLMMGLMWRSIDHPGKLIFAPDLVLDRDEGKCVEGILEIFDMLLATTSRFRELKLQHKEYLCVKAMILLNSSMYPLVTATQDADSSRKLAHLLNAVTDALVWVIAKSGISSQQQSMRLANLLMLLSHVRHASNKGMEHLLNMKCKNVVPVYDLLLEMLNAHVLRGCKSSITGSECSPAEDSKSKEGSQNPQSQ

IC50 [nM]	SMILES
9.1	C[C@@H]1CCN([C@@H](C)COc2ccc([C@@H]3Oc4ccc(O)c(F)c4S[C@@H]3c3cccc(O)c3)cc2)C1
69	C[C@@H]1CCN([C@@H](C)COc2ccc([C@@H]3Oc4ccc(O)cc4S[C@@H]3c3cccc(O)c3)cc2)C1
5.3	C[C@@H]1CCN([C@@H](C)COc2ccc([C@@H]3Oc4ccc(O)c(F)c4S[C@@H]3c3ccc(O)cc3)cc2)C1
